Measured values from patent US20260001893A1, “SMALL MOLECULE MODULATORS OF STAT6” (Gilead Sciences, Inc., priority 2024, published 2026).
pEC50: −log10 of the molar value.

Test system: Eotaxin-3 (CCL26) release in human whole blood stimulated with IL-4
Experiment: Human whole blood eotaxin-3 assay (IL-4 stimulated eotaxin-3 release)
Format: cell-based
Conditions: Homo sapiens, 48 h, human whole blood stimulated with recombinant human IL-4, 48 h; given for test compounds with <80% Emax; geometric mean
Protocol: Human Whole Blood Eotaxin-3 Assay
This was a human whole blood assay using recombinant human Interleukin 4 to stimulate the blood and measuring the ability of the test compounds to inhibit eotaxin-3 release. The biological activities of the test compounds have been tested in human whole blood stimulated with IL-4 measuring Eotaxin-3 release. The test compounds were added to 384 well clear flat-bottom plate in a 4-fold serial dilution in triplicates using a liquid handler. Human whole blood stabilized in lithium-heparin tubes was added in a volume of 65 μL per well, resulting in a final DMSO concentration of 0.5%. The plate is incubated for 2 h at 37° C. under 5% CO2/95% air. Subsequently, 5 μL of recombinant human IL-4 (R&D Systems, cat #204-ILB) was added to the wells to a final concentration of […]. The plate was incubated for 48 h at 37° C. under 5% CO2/95% air. The plate was spun down for 10 minutes at 500×g and 20 μL supernatant was harvested and transferred to a 384 well v-bottom plate using a liquid handler and stored at −20° C. until further analysis. 10 μL supernatant was used to measure the level of Eotaxin-3 (CCL26) using Human Eotaxin-3 MSD kit from Mesocsale (Cat #K251UEK-4). The assay was performed according to the manufacture instructions.
The data from the human whole blood eotaxin-3 assay is shown below for Examples 1ab3, 1ab6, 1d23, and 1d4 (where the effect in % is plotted against the test concentration in M on a log-scale).

Structure (SMILES) | Emax
[2H]C([2H])([2H])N(C(=O)c1ccc(C2CCN([C@@H](C)c3cc4c(-n5ncc(N)cc5=O)ccnc4n3C)CC2)cc1)C([2H])([2H])[2H] [Example 1af62, (S)-4-(1-(1-(4-(4-amino-6-oxopyridazin-1 (6H)-yl)-1-methyl-1H-pyrrolo[2,3-b]pyridin-2-yl)ethyl)piperidin-4-yl)-N,N-bis(methyl-d3)benzamide] | 20 to 30%

Same assay, conditions: Homo sapiens, 48 h, human whole blood stimulated with recombinant human IL-4, 48 h; inhibition of eotaxin-3 release; given for test compounds with >80% Emax; geometric mean

Structure (SMILES) | pEC50
C[C@@H](c1cc2c(-n3ccc4c(c3=O)CCN4)ccnc2n1C)N1CC=C(c2c(F)cc(C(=O)N(C)C)cc2F)CC1 [Example 1m122, (S)-3,5-difluoro-N,N-dimethyl-4-(1-(1-(1-methyl-4-(4-oxo-1,2,3,4-tetrahydro-5H-pyrrolo[3,2-c]pyridin-5-yl)-1H-pyrrolo[2,3-b]pyridin-2-yl)ethyl)-1,2,3,6-tetrahydropyridin-4-yl)benzamide] | 7.94
[2H]C([2H])([2H])N(C(=O)c1cc(C)c(C2=CCN([C@@H](C)c3cc4c(-n5ccc(N)cc5=O)ccnc4n3C)CC2)c(F)c1)C([2H])([2H])[2H] [Example 1m93, (S)-4-(1-(1-(4-(4-amino-2-oxopyridin-1 (2H)-yl)-1-methyl-1H-pyrrolo[2,3-b]pyridin-2-yl)ethyl)-1,2,3,6-tetrahydropyridin-4-yl)-3-fluoro-5-methyl-N,N-bis(methyl-d3)benzamide] | 8.42
CN(C)C(=O)c1cc(F)c(C2=CCN(Cc3cc4c(-n5ccc6c(c5=O)CCN6)ccnc4n3C)CC2)cc1C1CC1 (single isomer, unassigned) [Example 1m134, 2-cyclopropyl-5-fluoro-N,N-dimethyl-4-(1-((1-methyl-4-(4-oxo-1,2,3,4-tetrahydro-5H-pyrrolo[3,2-c]pyridin-5-yl)-1H-pyrrolo[2,3-b]pyridin-2-yl)methyl)-1,2,3,6-tetrahydropyridin-4-yl)benzamide] | 5.54
C[C@@H](c1cc2c(-n3ccc4c(c3=O)CCN4)ccnc2n1C)N1CCC(c2c(F)cc(C(=O)N(C)C)cc2F)CC1 [Example 1m126, (S)-3,5-difluoro-N,N-dimethyl-4-(1-(1-(1-methyl-4-(4-oxo-1,2,3,4-tetrahydro-5H-pyrrolo[3,2-c]pyridin-5-yl)-1H-pyrrolo[2,3-b]pyridin-2-yl)ethyl)piperidin-4-yl)benzamide] | 7.91
[2H]C([2H])([2H])N(C(=O)c1cc(F)c(C2CCN(Cc3cc4c(-n5ccc6c(c5=O)CCN6)ccnc4n3C)CC2)c(F)c1)C([2H])([2H])[2H] [Example 1m117, 3,5-difluoro-N,N-bis(methyl-d3)-4-(1-((1-methyl-4-(4-oxo-1,2,3,4-tetrahydro-5H-pyrrolo[3,2-c]pyridin-5-yl)-1H-pyrrolo[2,3-b]pyridin-2-yl)methyl)piperidin-4-yl)benzamide] | 7.61
Cc1cc(C(=O)N(C)C)cc(F)c1C1CCN(Cc2cc3c(-n4ccc5c(c4=O)CCN5)ccnc3n2C)CC1 [Example 1m103, 3-fluoro-N,N,5-trimethyl-4-(1-((1-methyl-4-(4-oxo-1,2,3,4-tetrahydro-5H-pyrrolo[3,2-c]pyridin-5-yl)-1H-pyrrolo[2,3-b]pyridin-2-yl)methyl)piperidin-4-yl)benzamide] | 7.57
[2H]C([2H])([2H])N(C(=O)c1cc(C)c(C2=CCN([C@@H](C)c3cc4c(-n5ccc6c(c5=O)CCN6)ccnc4n3C)CC2)c(F)c1)C([2H])([2H])[2H] [Example 1m128, (S)-3-fluoro-5-methyl-N,N-bis(methyl-d3)-4-(1-(1-(1-methyl-4-(4-oxo-1,2,3,4-tetrahydro-5H-pyrrolo[3,2-c]pyridin-5-yl)-1H-pyrrolo[2,3-b]pyridin-2-yl)ethyl)-1,2,3,6-tetrahydropyridin-4-yl)benzamide] | 8.47
CNc1ccn(-c2ccnc3c2cc([C@@H](C)N2CCC(c4c(C)cc(C(=O)N(C)C)cc4F)CC2)n3C)c(=O)c1 [Example 1m108, (R)-3-fluoro-N,N,5-trimethyl-4-(1-(1-(1-methyl-4-(4-(methylamino)-2-oxopyridin-1 (2H)-yl)-1H-pyrrolo[2,3-b]pyridin-2-yl)ethyl)piperidin-4-yl)benzamide] | 6.50
CNc1nc(=O)n(-c2ccnc3c2cc(CN2CCC(c4c(F)cc(C(=O)N(C)C)cc4F)CC2)n3C)cc1F [Example 1m118, 3,5-difluoro-4-(1-((4-(5-fluoro-4-(methylamino)-2-oxopyrimidin-1 (2H)-yl)-1-methyl-1H-pyrrolo[2,3-b]pyridin-2-yl)methyl)piperidin-4-yl)-N,N-dimethylbenzamide] | 7.26
CN(C)C(=O)c1ccc(C2CCN(Cc3cc4c(-n5ccc(N)c(C(=O)CCCO)c5=O)ccnc4n3C)CC2)cc1 [Example 1d44, 4-[1-[[4-[4-Amino-3-(4-hydroxybutanoyl)-2-oxo-1-pyridyl]-1-methyl-pyrrolo[2,3-b]pyridin-2-yl]methyl]-4-piperidyl]-N,N-dimethyl-benzamide] | 6.51
C[C@@H](c1cc2c(-n3ccc(N)c(F)c3=O)ccnc2n1C)N1CC=C(c2ccc(C(=O)N(C)C)cn2)CC1 (single isomer, unassigned) [Example 1m77] | 6.28
CN(C)C(=O)c1cc(F)c(C2CCN(Cc3cc4c(-n5cc(F)c6c(c5=O)CCN6)ccnc4n3C)CC2)c(F)c1 [Example 1m133, 3,5-difluoro-4-(1-((4-(7-fluoro-4-oxo-1,2,3,4-tetrahydro-5H-pyrrolo[3,2-c]pyridin-5-yl)-1-methyl-1H-pyrrolo[2,3-b]pyridin-2-yl)methyl)piperidin-4-yl)-N,N-dimethylbenzamide] | 7.12
CNc1ccn(-c2ccnc3c2cc([C@H](C)N2CC=C(c4c(C)cc(C(=O)N(C)C)cc4F)CC2)n3C)c(=O)c1 [Example 1af82, (S)-3-fluoro-N,N,5-trimethyl-4-(1-(1-(1-methyl-4-(4-(methylamino)-2-oxopyridin-1 (2H)-yl)-1H-pyrrolo[2,3-b]pyridin-2-yl)ethyl)-1,2,3,6-tetrahydropyridin-4-yl)benzamide] | 8.58
C[C@H](c1cc2c(-n3ccc4c(c3=O)CCN4)ccnc2n1C)N1CC=C(c2c(F)cc(C(=O)N(C)C)cc2F)CC1 [Example 1m123, (R)-3,5-difluoro-N,N-dimethyl-4-(1-(1-(1-methyl-4-(4-oxo-1,2,3,4-tetrahydro-5H-pyrrolo[3,2-c]pyridin-5-yl)-1H-pyrrolo[2,3-b]pyridin-2-yl)ethyl)-1,2,3,6-tetrahydropyridin-4-yl)benzamide] | 6.68
CNc1ccn(-c2ccnc3c2cc([C@@H](C)N2CC=C(c4c(C)cc(C(=O)N(C)C)cc4F)CC2)n3C)c(=O)c1 (single isomer, unassigned) [Example 1m105] | 7.09
CNc1ccn(-c2ccnc3c2cc(CN2CCC(c4ccc(C(=O)N(C)C)cc4)C[C@H]2C)n3C)c(=O)c1 (stereo in doubt) [Example 1d41, N,N-dimethyl-4-[(2R,4S)-2-methyl-1-[[1-methyl-4-[4-(methylamino)-2-oxo-1-pyridyl]pyrrolo[2,3-b]pyridin-2-yl]methyl]-4-piperidyl]benzamide] | 6.55
CN(C)C(=O)c1cc(F)c(C2=CCN(Cc3cc4c(-n5ccc6c(c5=O)CCN6)ccnc4n3C)CC2)c(C2CC2)c1 (single isomer, unassigned) [Example 1m135, 3-cyclopropyl-5-fluoro-N,N-dimethyl-4-(1-((1-methyl-4-(4-oxo-1,2,3,4-tetrahydro-5H-pyrrolo[3,2-c]pyridin-5-yl)-1H-pyrrolo[2,3-b]pyridin-2-yl)methyl)-1,2,3,6-tetrahydropyridin-4-yl)benzamide] | 7.92
[2H]C([2H])([2H])N(C(=O)c1ccc(C2CCN([C@@H](C)c3cc4c(-n5ccc(N)cc5=O)ccnc4n3C)CC2)cc1)C([2H])([2H])[2H] [Example 1af65, (S)-4-(1-(1-(4-(4-amino-2-oxopyridin-1 (2H)-yl)-1-methyl-1H-pyrrolo[2,3-b]pyridin-2-yl)ethyl)piperidin-4-yl)-N,N-bis(methyl-d3)benzamide] | 7.71
CNc1c(F)cn(-c2ccnc3c2cc([C@H](C)N2CC=C(c4c(C)cc(C(=O)N(C)C)cc4F)CC2)n3C)c(=O)c1F [Example 1m140, (S)-4-(1-(1-(4-(3,5-difluoro-4-(methylamino)-2-oxopyridin-1 (2H)-yl)-1-methyl-1H-pyrrolo[2,3-b]pyridin-2-yl)ethyl)-1,2,3,6-tetrahydropyridin-4-yl)-3-fluoro-N,N,5-trimethylbenzamide] | 7.79
Cc1cc(C(=O)N(C)C)cc(F)c1C1CCN([C@@H](C)c2cc3c(-n4ccc5c(c4=O)CCN5)ccnc3n2C)CC1 (single isomer, unassigned) [Example 1m121] | 7.79
Cc1cc(C(=O)N(C)C)cc(F)c1C1=CCN(Cc2cc3c(-n4ccc(N)c(C)c4=O)ccnc3n2C)CC1 [Example 1m87, 4-(1-((4-(4-amino-3-methyl-2-oxopyridin-1 (2H)-yl)-1-methyl-1H-pyrrolo[2,3-b]pyridin-2-yl)methyl)-1,2,3,6-tetrahydropyridin-4-yl)-3-fluoro-N,N,5-trimethylbenzamide] | 8.34
